Holding throughout (assay type): functional, cell-based
In one assay the test system is HeLa. Kind of assay: Antiproliferative activity against human HeLa cells after 72 hrs by XTT assay.
Another assay deals with HT-29. The assay can be described thus: Antiproliferative activity against human HT29 cells after 72 hrs by XTT assay. Particulars: HT-29, 72 h.
The next assay deals with HL-60. Kind of assay: Antiproliferative activity against human HL60 cells after 72 hrs by XTT assay. To be noted: HL-60, 72 h. (In general: Formazan colour is commonly taken as a measure of viable cells.)
The test system of the next assay is A549. Kind of assay: Antiproliferative activity against human A549 cells after 72 hrs by XTT assay. To be noted: A549, 72 h.

Where only a bound is given, the exact number is not on record here.

In ChEMBL document CHEMBL1149638, “Synthesis of novel antitumoural analogues of dysidiolide from ent-halimic acid” (Bioorg Med Chem, 2007) one finds IC50 data, which are given here for 15 compounds.

As usually defined, the IC50 is the midpoint of a concentration-inhibition curve. Higher therefore signals lower potency.

As to `C=C(C)CCC[C@]1(C)C2=CCC[C@](C)(C[C@@H](O)c3ccoc3)[C@H]2CC[C@H]1C`, the IC50 was 59.4 µM with HeLa, 63.1 µM in the assay with HT-29, 31.2 µM in the assay with HL-60 and 66 µM in the assay on A549.
The matching figures for `C=C(C)CC[C@]1(C)C2=CCC[C@](C)(C[C@@H](O)C3=CC(=O)OC3O)[C@H]2CC[C@H]1C` (stereo not given in full): 5.4 µM, 3.6 µM, 3.3 µM and 4.4 µM.
The matching figures for `C=C(C)CCC[C@]1(C)C2=CCC[C@](C)(C[C@H](O)c3ccoc3)[C@H]2CC[C@H]1C`: 59.4 µM, 63.1 µM, 31.2 µM and 66 µM.
The matching figures for `C=C(C)CCC[C@]1(C)C2=CCC[C@](C)(CC(=O)c3ccoc3)[C@H]2CC[C@H]1C`: more than 100 µM, more than 100 µM, more than 100 µM and more than 100 µM.
Regarding `C=C(C)CCC[C@]1(C)C2=CCC[C@](C)(C[C@@H](OC(C)=O)C3=CC(=O)OC3O)[C@H]2CC[C@H]1C` (stereo not given in full), the IC50 is 3.5 µM in the assay on HeLa, 2.9 µM with HT-29, 3.2 µM in the assay on HL-60 and 3.2 µM in the assay on A549.
`C=C(C)CCC[C@]1(C)C2=CCC[C@](C)(C[C@H](OC(C)=O)C3=CC(=O)OC3O)[C@H]2CC[C@H]1C` (stereo not given in full): the IC50 came out at 2.6 µM with HeLa, 4.2 µM in the assay with HT-29, 3 µM in the assay with HL-60 and 4.5 µM with A549.
Taken in the same sequence, the figures for `C=C(C)CCC[C@]1(C)C2=CCC[C@](C)(C[C@@H](O)C3=CC(=O)OC3O)[C@H]2CC[C@H]1C` (stereo not given in full) were 2.6 µM, 2.3 µM, 3.2 µM and 3.8 µM.
Taken in the same sequence, the figures for `CC(C)=CCC[C@]1(C)C2=CCC[C@](C)(CC(=O)c3ccoc3)[C@H]2CC[C@H]1C` were 54.5 µM, 82.3 µM, 57.8 µM and 91 µM.
For `C=C(C)CC[C@]1(C)C2=CCC[C@](C)(C[C@H](O)C3=CC(=O)OC3O)[C@H]2CC[C@H]1C` (stereo not given in full), the IC50 in the assay on HeLa worked out at 4.8 µM; in the assay on HT-29, 3.2 µM; in the assay with HL-60, 3.2 µM; in the assay on A549 it was 4.5 µM.
As to `C=C(C)CC[C@]1(C)C2=CCC[C@](C)(C[C@@H](O)c3ccoc3)[C@H]2CC[C@H]1C`, the IC50 in the assay with HeLa is 30.2 µM; in the assay with HT-29 it was 30 µM; with HL-60, 28.7 µM; in the assay with A549 it was 34 µM.
Taken in the same sequence, the figures for `COC/C=C(\C)CC[C@]1(C)C2=C(CC[C@H]1C)C1(C)CCC2[C@@](O)(C2=CC(=O)OC2O)C1` (stereo not given in full) were 26.5 µM, 18.7 µM, 18.7 µM and 28.2 µM.
Regarding `C=C(C)CC[C@]1(C)C2=CCC[C@](C)(C[C@H](O)c3ccoc3)[C@H]2CC[C@H]1C`, the IC50 with HeLa came to 30.2 µM; in the assay with HT-29, 30 µM; with HL-60, 28.7 µM; in the assay on A549, 34 µM.
In the case of `C=C(C)CC[C@]1(C)C2=CCC[C@](C)(C[C@@H](OC(C)=O)C3=CC(=O)OC3O)[C@H]2CC[C@H]1C` (stereo not given in full), the 50% inhibitory concentration (IC50) in the assay with HeLa amounted to 6.7 µM; with HT-29, 4.8 µM; with HL-60, 3.3 µM; with A549, 11.1 µM.
The matching figures for `C=C(C)CCC[C@]1(C)C2=C(CC[C@H]1C)C1(C)CCC2[C@@](O)(C2=CC(=O)OC2O)C1` (stereo not given in full): 3.1 µM, 2.9 µM, 0.3 µM and 3 µM.
The matching figures for `C=C(C)CCC[C@]1(C)C2=CCC[C@](C)(C[C@H](O)C3=CC(=O)OC3O)[C@H]2CC[C@H]1C` (stereo not given in full): 3.8 µM, 3 µM, 3 µM and 3.2 µM.
